Experimental data reported in publication PMC7616682 (Journal of biological inorganic chemistry : JBIC : a …, 2024).
Values after ≈ are worked out from the molar mass of the structure shown. Read-outs that look alike come from different tables or passages of the source. Blank lines part the entries; values can stand above or below the molecule they belong to.

Tests used:
[1] = tested on: S. aureus NTCC 12973; experiment: MIC broth microdilution assay; type: cell-based, Staphylococcus aureus; settings: 24 h, read-out: MIC S. aureus (Gram positive)
Protocol: (§1) Antibacterial activity assay […]
(§2) MIC broth microdilution assay
(§3) 3 × 125 mL Erlenmeyer flasks, each filled with 12.5 mL MHBII, were inoculated with three different colonies of S. aureus NTCC 12973. 3 × 125 mL Erlenmeyer flasks, each filled with 12.5 mL BHI broth, were inoculated with three different colonies of E. faecium ATCC 19434. The cultures were incubated at 37 °C with shaking at 180 rpm for 16 h.
(§4) OD600 of ~2.5. The suspensions of S. aureus cultures were diluted 100-fold with MHBII while the E. faecium cultures were diluted 4-fold. The resultant suspensions were incubated for a further 3 h at 37 °C with shaking. […]
(§5) after 3 h. Stock solutions of the title compounds were prepared in the requisite broth from 100 mM stocks in DMSO with the exception of carbenicillin, which was from a 100 mM stock in water and vancomycin from a 10 mM stock in DMSO. 15 × 96 well plates were primed with concentration gradients of the analytes and carbenicillin as shown in Figure S60 for S. aureus. 15 × 96 well plates were primed with the concentration […]
(§6) μL per well of the relevant bacterial culture in the requisite broth to 100 μL per well.
Plates were then incubated at 37 °C for 24 h before reading OD600 on a BMG Clariostar […]
Figure S50: Dose response profiles of the title compounds against S. aureus.
(§7) (1 picture or pasted object on this page, not shown here)

[2] = tested on: Escherichia coli K12 ATCC 10798; experiment: Rapid screen broth microdilution assay; type: cell-based; settings: rapid screen without replicates, 24 h, read-out: MIC E. coli (Gram negative)
Protocol: (§8) Antibacterial activity assay
(§9) Rapid screen broth microdilution assay
(§10) 5 × 125 mL Erlenmeyer flasks, each filled with 12.5 mL Mueller Hinton broth II (MHBII), were inoculated with Klebsiella pneumoniae ATCC 13883, Acinetobacter baumanii ATCC 17978, Psuedomonas aeruginosa ATCC BAA-47, Staphylococcus aureus […]
(§11) with 12.5 mL BHI broth was inoculated with Enterococcus faecium ATCC 19434. The cultures were incubated at 37 °C with shaking at 180 rpm for 16 h. The suspensions were diluted 100-fold with the requisite broth (E. faecium: 4-fold) and the resultant suspensions incubated for a further 3 h at 37 °C with shaking. […]
(§12) of 0.8–1.2 after 3 h. Stock solutions of the title compounds were prepared in the requisite broth from 100 mM stocks in DMSO with the exceptions of carbenicillin, which was from a 100 mM stock in water and ciprofloxacin from a 10 mM stock in DMSO.
(§13) 6 × 96 well plates were primed with a concentration gradient of the analytes from 200 to 3.13 µM, carbenicillin from 200 to 3.13 µM and ciprofloxacin from 10 to 0.16 µM. The cells were diluted 100-fold to an OD600 of 0.01. All plates were then inoculated with 50 μL per well bacterial culture in the requisite broth to 100 μL per well. Plates were then incubated at 37 °C for 24 h before reading OD600 on a BMG Clariostar platereader. […]

[3] = tested on: Acinetobacter baumanii ATCC 17978; experiment: Rapid screen broth microdilution assay; type: cell-based, Acinetobacter baumannii; settings: rapid screen without replicates, 24 h, read-out: MIC A. baumannii (Gram negative)
Protocol: as §8, §9, §10, §11, §12, §13

[4] = tested on: Psuedomonas aeruginosa ATCC BAA-47; experiment: Rapid screen broth microdilution assay; type: cell-based, Pseudomonas aeruginosa; settings: rapid screen without replicates, 24 h, read-out: MIC P. aeruginosa (Gram negative)
Protocol: as §8, §9, §10, §11, §12, §13

[5] = tested on: Klebsiella pneumoniae ATCC 13883; experiment: Rapid screen broth microdilution assay; type: cell-based; settings: rapid screen without replicates, 24 h, read-out: MIC K. pnuemoniae (Gram negative)
Protocol: as §8, §9, §10, §11, §12, §13

[6] = tested on: BEASB2, HaCat, RPE1, HCT116 and HeLa cell lines; experiment: Cell viability, summary over all cell lines studied; type: cell-based, human; settings: summary of Table 3, 48 h; for IC50: read-out: IC50 values, range over all cell lines studied
Protocol: (§14) To determine the relative viability, after incubation cells were fixed and stained with DAPI and the number of nuclei per well determined using a CeligoTM Image Cytometer (Figure S52 to S60). […] page 43: Cell viability studies Compound cytotoxicity was tested simultaneously on five representative cell lines […] All cells were cultured in DMEM Glutamax without pyruvate with 10% fetal bovine serum and 1% penicillin/streptomycin (Gibco). Cells were incubated with the compound for 24 or 48 h […] The tested concentration range for each compound was […] The required […] Greiner CELLSTAR® microplates) using the Echo 550 Acoustic Liquid Handler and wells were back-filled with DMSO when required to keep a final DMSO concentration […] Next, 50 μL of cell solution was added to the compound-containing wells using the Integra® […] Bulk dispenser. Cell solutions were prepared to get 5000 […] cells per well for hTERT RPE-1, and 5000 (24 h)/2500 (48 h) cells per well for BEAS- […] After incubation, cells were fixed with 4% PFA (Merck, […]), permeabilized with […] DAPI (Merck, 10236276001). Viable cells were counted using 377 nm excitation and 447 nm emission filters on the CeligoTM Image Cytometer. The number of nuclei per well was determined using the Direct Cell Count analysis from the CeligoPro Sofware […] All conditions were performed in triplicate. Staurosporine (Cambridge Bioscience, s7600) was used as a positive control and DMSO only as a negative control. The percentage of cell viability was normalized to the DMSO-only control and […] logistic curve with the scipy.optimize.curve_fit function. S43

[7] = molecular target: T1, avidin (Gallus gallus, UniProt P02701); experiment: HABA/avidin assay; type: binding; settings: titration of HABA/avidin mixture, absorbance at 500 nm
T1 construct: purchased SIGMA-ALDRICH A9275
T1 sequence (P02701 25-152): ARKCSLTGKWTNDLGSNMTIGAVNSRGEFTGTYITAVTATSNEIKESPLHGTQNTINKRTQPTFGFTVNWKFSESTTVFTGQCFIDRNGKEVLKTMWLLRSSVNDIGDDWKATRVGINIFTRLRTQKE
Protocol: properties towards avidin using the HABA assay.[8] A mixture of avidin (6.8 μM, SIGMA-ALDRICH: A9275) and 4'-hydroxyazobenzene-2-carboxylic acid (HABA, 0.3 mM, SIGMA-ALDRICH: H5126) was dissolved in 50 mM sodium phosphate buffer (20 mL, pH 7.4) and allowed to equilibrate for 24 h at 4 °C. Stock solutions of each compound were prepared in dimethyl sulfoxide at a concentration of 1.1 mM. The […]
to the prepared avidin/HABA mixture (1 mL) at room temperature at 5–10 min intervals […]
absorbance then recorded with an Agilent 8453 UV/Vis spectrometer. The formation of the adduct was indicated by a decrease in the absorbance at 500 nm due to the displacement of HABA from the avidin. By plotting -ΔA500 nm vs. the molar concentration ratio c(compound):c(avidin), the binding stoichiometry of the compound to avidin was determined.

[8] = LogP by shake-flask method (n-octanol/phosphate buffer)
Protocol: using the "shake-flask" method.[6],[7] In short, phosphate buffer (50 mM, pH 7.4) was saturated with n-octanol by shaking a 1:1 mixture of both solution on a laboratory shaker for 72 h, after which the phases were separated. Stock solutions of each complex were then prepared in dimethylsulfoxide at a concentration of 10 mM. […]
(§15) solution with a concentration of 100 µM. From this solution, 1000 µL were transferred into an Eppendorf tube and mixed with 1000 µL of n-octanol. After shaking for 15 min and centrifugation (5 min, 6000 rpm), the two phases were carefully separated, and the contact layer discarded. Then, the absorbance of each phase was recorded with an Agilent 8453 UV/Vis spectrometer.
as §15, with “2 mL solution with” for “solution with”, “1000 µL phosphate buffer. After shaking” for “1000 µL of n-octanol. After shaking”, “rpm), the phases were” for “rpm), the two phases were”

[9] = tested on: HaCat (non-cancer skin) cells; experiment: Cell viability (DAPI nuclei count); type: cell-based, human; settings: 48 h
Protocol: as §14

[10] = tested on: BEAS2B (non-cancer lung) cells; experiment: Cell viability (DAPI nuclei count); type: cell-based, human; settings: 48 h
Protocol: as §14

[11] = tested on: HCT116 (colorectal cancer) cells; experiment: Cell viability (DAPI nuclei count); type: cell-based, human; settings: 48 h
Protocol: as §14

[12] = tested on: RPE1 (retinal pigment epithelial cells); experiment: Cell viability (DAPI nuclei count); type: cell-based, human; settings: 48 h
Protocol: as §14

[13] = tested on: HeLa (cervical cancer) cells; experiment: Cell viability (DAPI nuclei count); type: cell-based, human; settings: 48 h
Protocol: as §14

[14] = tested on: E. faecium ATCC 19434; experiment: MIC broth microdilution assay; type: cell-based, Enterococcus faecium; settings: three colonies, 24 h; for MIC: read-out: MIC E. faecium (Gram positive)
Protocol: as §1, §2, §3, §4, §5, §6

[15] = molecular target: streptavidin (Streptomyces avidinii, UniProt P22629); experiment: Isothermal titration calorimetry (ITC) with streptavidin; type: binding; settings: 25 °C, 10 mM HEPES + 2% DMSO, read-out: dissociation constant (Kd) to streptavidin
Protocol: Isothermal titration calorimetry
Streptavidin (20 µM in 10 mM HEPES plus 2% DMSO) was titrated stepwise with 2 uL injections of the compound (200 µM in 10 mM HEPES + 2% DMSO) at 25 °C, using a Malvern MicroCal PEAQ-ITC. Raw thermograms (top panels) and the binding isotherm from the integrated thermogram (bottom panels) were fit using the One Set of Sites model in the MicroCal PEAQ-ITC analysis software. Circles indicate the integrated heat, and the curve represents the best fit.
Figure S46: Isothermal titration calorimetry measurements of 5.
as §7

MIC ([1]; Staphylococcus aureus, NTCC12973, three colonies): 12.5 µM (≈ 4.73 µg/mL) | MIC ([2]; Escherichia coli, ATCC10798): 12.5 µM (≈ 4.73 µg/mL)
Molecule: CC1(C)S[C@@H]2[C@H](NC(=O)C(C(=O)O)c3ccccc3)C(=O)N2[C@H]1C(=O)O (stereo partly drawn) [Carbenicillin, reference compound]

MIC ([3]; Acinetobacter baumannii, ATCC17978): 0.31 µM (≈ 0.103 µg/mL) | MIC ([4]; Pseudomonas aeruginosa, ATCCBAA47): 100 µM (≈ 33.1 µg/mL) | MIC ([5]; Klebsiella pneumoniae, ATCC13883): < 0.16 µM
Molecule: O=C(O)c1cn(C2CC2)c2cc(N3CCNCC3)c(F)cc2c1=O [Ciprofloxacin, reference compound]

Molecule: CC(=O)c1n[n]([Au][PH](c2ccccc2)(c2ccccc2)c2ccccc2)nc1-c1ccccc1 [Compound 11, [Au(triazolatoC6H5,COCH3)(PPh3)]]
IC50 [6]: 2 to 8 µM | MIC [3]: 100 µM | MIC [4]: >200 µM | MIC ([1]; three colonies): 2.5 µM | MIC [2]: >200 µM | MIC [5]: >200 µM | avidin binding in HABA assay (result in words) [7]: non-specific protein binding | LogP ([8]; pH 7.4): highly lipophilic^a | IC50 [9]: 6.1 µM | IC50 [10]: 2500 nM | IC50 [11]: 5.5 µM | IC50 [12]: 2.7 µM | IC50 [13]: 3.5 µM | MIC E. faecium (Gram positive) [14]: 0.625 to 5 µM

MIC [3]: >200 µM | MIC [4]: >200 µM | MIC ([1]; three colonies): 200 µM | MIC [2]: >200 µM | MIC [5]: >200 µM | avidin binding in HABA assay (result in words) [7]: non-specific protein binding | LogP ([8]; pH 7.4): highly lipophilic^a | IC50 [11]: > 50 µM | IC50 [13]: > 50 µM | MIC [14]: >200 µM
Molecule: COC(=O)c1n[n]([Pt][c]2c(-c3ccccn3)cccc2-c2ccccn2)nc1C(=O)OC [Compound 13]
IC50 values, range over all cell lines studied [6]: did not show any biological activity | IC50 [9]: > 50 µM | IC50 [12]: > 50 µM

Molecule: O=C1N[C@H]2[C@H](CS[C@H]2CCCCC(=O)c2n[n]([Pt][c]3c(-c4ccccn4)cccc3-c3ccccn3)nc2-c2ccccc2)N1 [Compound 14, [Pt(triazolatoC6H5,biotin)(dpb)]]
MIC [3]: >200 µM | MIC [4]: >200 µM | MIC ([1]; three colonies): 12.5 µM | MIC [2]: >200 µM | MIC [5]: >200 µM | LogP ([8]; shake-flask method, n-octanol/phosphate buffer 50 mM pH 7.4): highly lipophilic^a | IC50 [9]: 10.2 µM | IC50 [10]: 6700 nM | IC50 [11]: 9.4 µM | IC50 [12]: 7.4 µM | IC50 [13]: 8.2 µM | MIC E. faecium (Gram positive) [14]: 5 to 10 µM

Molecule: COC(=O)c1n[n]([Ir+][c]2ccccc2-c2ccccn2)nc1C(=O)OC.F[P-](F)(F)(F)(F)F.c1ccc(-c2cccc(-c3ccccn3)n2)nc1 [Compound 17]
IC50 [6]: > 35 µM | MIC [3]: >200 µM | MIC [4]: >200 µM | MIC ([1]; three colonies): >200 µM | MIC [2]: >200 µM | MIC [5]: >200 µM | avidin binding in HABA assay (result in words) [7]: non-specific protein binding | LogP ([8]; pH 7.4): -1.02 | IC50 [9]: > 50 µM | IC50 [11]: > 50 µM | IC50 [12]: 35 µM | IC50 [13]: > 50 µM | MIC [14]: >200 µM

Molecule: [Au(triazolatoC6H5,biotin)(PPh3)] [Compound 12]
IC50 [6]: 2 to 8 µM | MIC [3]: 50 µM | MIC [4]: >200 µM | MIC ([1]; three colonies): 1.25 µM | MIC [2]: >200 µM | MIC [5]: >200 µM | IC50 [9]: 6.6 µM | IC50 [10]: 2700 nM | IC50 [11]: 7.2 µM | IC50 [12]: 3.6 µM | IC50 [13]: 3.8 µM | MIC E. faecium (Gram positive) [14]: 0.625 to 2.5 µM

Molecule: [Ir(triazolatoC6H5,biotin)(ppy)(terpy]PF6 [Compound 18]
IC50 [6]: > 35 µM | MIC [3]: >200 µM | MIC [4]: >200 µM | MIC ([1]; three colonies): 100 µM | MIC [2]: >200 µM | MIC [5]: >200 µM | Kd [15]: 45 nM | IC50 [9]: > 50 µM | IC50 [11]: > 50 µM | IC50 [12]: 39.7 µM | IC50 [13]: > 50 µM | MIC [14]: 100 µM
